The record followed here is PubChem BioAssay AID248 (DTP/NCI, 2004).

Toxic doses and inconclusive results are not listed.

The test concerns L1210 leukemia ip in BDF1 mice, survival T/C. Nature of the test: NCI In Vivo Anticancer Drug Screen. Data for tumor model L1210 Leukemia (intraperitoneal) in B6D2F1 (BDF1) mice. Conditions: endpoint: mean survival time, higher = longer survival. In a few lines: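 Antitumor effect is assessed in tumor-bearing animals. Survival in the compound arm is compared with a vehicle-dosed control arm and expressed as their quotient.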

[1] abbreviates: dose: 100.0 mg/kg/injection, schedule: Q01DX009 (ip), vehicle: saline with Tween-80.
Setting [2] is: dose: 100.0 mg/kg/injection, schedule: Q04DX003 (ip), vehicle: saline with Tween-80.
The mark [3] stands for this setting: dose: 200.0 mg/kg/injection, schedule: Q01DX009 (ip), vehicle: saline with Tween-80.
[4] abbreviates: dose: 200.0 mg/kg/injection, schedule: Q04DX003 (ip), vehicle: saline with Tween-80.
[5] abbreviates: dose: 400.0 mg/kg/injection, schedule: Q01DX009 (ip), vehicle: saline with Tween-80.
The mark [6] stands for this setting: dose: 400.0 mg/kg/injection, schedule: Q04DX003 (ip), vehicle: saline with Tween-80.

On to `CCOP(=O)(N1CC1(C)C)N1CC1(C)C` (centres undefined), for which the T/C (dose: 1.0 mg/kg/injection, schedule: Q01DX009 (ip), vehicle: saline) is 100 % of control; the T/C (dose: 2.0 mg/kg/injection, schedule: Q01DX009 (ip), vehicle: saline) was 105 % of control; the T/C (dose: 4.0 mg/kg/injection, schedule: Q01DX009 (ip), vehicle: saline) is 110 % of control; the T/C (dose: 20.0 mg/kg/injection, schedule: Q01DX009 (ip), vehicle: saline) was 161 % of control; the T/C (dose: 25.0 mg/kg/injection, schedule: Q01DX001 (ip), vehicle: other) was 209 % of control; the T/C (dose: 30.0 mg/kg/injection, schedule: Q01DX009 (ip), vehicle: saline) was 209 % of control. In addition, the T/C is, setting by setting: (dose: 50.0 mg/kg/injection, schedule: Q01DX001 (ip), vehicle: other) 201 % of control; (dose: 52.0 mg/kg/injection, schedule: Q01DX009 (ip), vehicle: Klucel (hydroxypropylcellulose) (HPC)) 177 % of control; (dose: 53.0 mg/kg/injection, schedule: Q01DX001 (ip), vehicle: saline) 152 % of control; (dose: 80.0 mg/kg/injection, schedule: Q01DX001 (ip), vehicle: other) 151 % of control; (dose: 80.0 mg/kg/injection, schedule: Q01DX001 (ip), vehicle: saline) 152 % of control; (dose: 80.0 mg/kg/injection, schedule: Q01DX009 (ip), vehicle: saline) 91 % of control. Moreover, the T/C (dose: 120.0 mg/kg/injection, schedule: Q01DX001 (ip), vehicle: other) is 162 % of control; the T/C (dose: 120.0 mg/kg/injection, schedule: Q01DX001 (ip), vehicle: saline) is 273 % of control; the T/C (dose: 177.0 mg/kg/injection, schedule: Q01DX001 (ip), vehicle: saline) was 174 % of control; the T/C (dose: 180.0 mg/kg/injection, schedule: Q01DX001 (ip), vehicle: other) is 224 % of control; the T/C (dose: 200.0 mg/kg/injection, schedule: Q01DX001 (ip), vehicle: other) was 223 % of control; the T/C (dose: 400.0 mg/kg/injection, schedule: Q01DX001 (ip), vehicle: other) was 226 % of control.
With `Cc1ccc(C(O)CCN2CCOCC2)c(C)c1` (centres undefined), the T/C runs as follows: (dose: 100.0 mg/kg/injection, schedule: Q01DX001 (ip), vehicle: saline) 102 % of control; (dose: 200.0 mg/kg/injection, schedule: Q01DX001 (ip), vehicle: saline) 104 % of control.
As for `Nc1ccc(S(=O)O)cc1`, the T/C reads like this: under setting [1], 94 % of control; under setting [2], 105 % of control; under setting [3], 91 % of control; under setting [4], 95 % of control; under setting [5], 94 % of control; under setting [6], 91 % of control.
`O=C(c1ccc(Cl)cc1)c1nc2ccccc2[nH]1`: the T/C is 95 % of control (dose: 100.0 mg/kg/injection, schedule: Q04DX002 (ip), vehicle: Klucel (hydroxypropylcellulose) (HPC)); 95 % of control (dose: 200.0 mg/kg/injection, schedule: Q04DX002 (ip), vehicle: Klucel (hydroxypropylcellulose) (HPC)); 103 % of control (dose: 400.0 mg/kg/injection, schedule: Q04DX002 (ip), vehicle: Klucel (hydroxypropylcellulose) (HPC)).
For the compound `O=C1C=CC(=O)N1CCc1ccccc1`, the T/C (dose: 3.0 mg/kg/injection, schedule: Q01DX009 (ip), vehicle: Klucel (hydroxypropylcellulose) (HPC)) is 106 % of control; the T/C (dose: 5.0 mg/kg/injection, schedule: Q01DX009 (ip), vehicle: saline with Tween-80) is 91 % of control; the T/C (dose: 6.0 mg/kg/injection, schedule: Q01DX009 (ip), vehicle: Klucel (hydroxypropylcellulose) (HPC)) is 95 % of control; the T/C (dose: 10.0 mg/kg/injection, schedule: Q01DX009 (ip), vehicle: saline with Tween-80) is 87 % of control; the T/C (dose: 12.0 mg/kg/injection, schedule: Q01DX009 (ip), vehicle: Klucel (hydroxypropylcellulose) (HPC)) is 103 % of control; the T/C (dose: 12.5 mg/kg/injection, schedule: Q01DX009 (ip), vehicle: Klucel (hydroxypropylcellulose) (HPC)) is 97 % of control. Moreover, the T/C (dose: 20.0 mg/kg/injection, schedule: Q01DX009 (ip), vehicle: saline with Tween-80) was 101 % of control and the T/C (dose: 20.0 mg/kg/injection, schedule: Q04DX003 (ip), vehicle: saline with Tween-80) is 95 % of control.
Regarding `CN(C)N=Nc1ccc(S(=O)(=O)Nc2ncccn2)cc1`, the T/C is, setting by setting: (dose: 100.0 mg/kg/injection, schedule: Q04DX002 (ip), vehicle: saline with Tween-80) 114 % of control; (dose: 264.0 mg/kg/injection, schedule: Q04DX003 (ip), vehicle: saline with Tween-80) 100 % of control; (dose: 400.0 mg/kg/injection, schedule: Q04DX002 (ip), vehicle: saline with Tween-80) 177 % of control; under setting [6], 105 % of control; (dose: 400.0 mg/kg/injection, schedule: Q04DX003 (ip), vehicle: saline) 176 % of control; (dose: 600.0 mg/kg/injection, schedule: Q04DX003 (ip), vehicle: saline) 124 % of control.
Turning to `Cc1cc(C)c(C(=O)O)c(C)c1.[Hg]`, the T/C is 96 % of control (dose: 3.0 mg/kg/injection, schedule: Q04DX003 (ip), vehicle: Klucel (hydroxypropylcellulose) (HPC)); 91 % of control (dose: 6.0 mg/kg/injection, schedule: Q04DX003 (ip), vehicle: Klucel (hydroxypropylcellulose) (HPC)); 86 % of control (dose: 12.0 mg/kg/injection, schedule: Q04DX003 (ip), vehicle: Klucel (hydroxypropylcellulose) (HPC)); 88 % of control (dose: 12.5 mg/kg/injection, schedule: Q04DX003 (ip), vehicle: Klucel (hydroxypropylcellulose) (HPC)).
Take `CNc1ccc(Cl)cc1C`: the T/C is 103 % of control (dose: 100.0 mg/kg/injection, schedule: Q04DX002 (sc), vehicle: olive oil, sesame oil, peanut oil); 110 % of control (dose: 200.0 mg/kg/injection, schedule: Q04DX002 (sc), vehicle: olive oil, sesame oil, peanut oil); 100 % of control (dose: 400.0 mg/kg/injection, schedule: Q04DX002 (sc), vehicle: olive oil, sesame oil, peanut oil).
Take `CC(=O)C(C(C)=O)c1cc(NS(=O)(=O)c2ccccc2)ccc1O`: the T/C is 100 % of control (dose: 100.0 mg/kg/injection, schedule: Q01DX001 (ip), vehicle: saline with Tween-80); 104 % of control (dose: 200.0 mg/kg/injection, schedule: Q01DX001 (ip), vehicle: saline with Tween-80); 89 % of control (dose: 400.0 mg/kg/injection, schedule: Q01DX001 (ip), vehicle: saline with Tween-80).
Consider `O=C(CCCl)NC(Cc1ccccc1)c1ccccc1` (centres undefined), for which the T/C runs as follows: (dose: 100.0 mg/kg/injection, schedule: Q01DX009 (ip), vehicle: Klucel (hydroxypropylcellulose) (HPC)) 102 % of control; (dose: 100.0 mg/kg/injection, schedule: Q04DX003 (ip), vehicle: Klucel (hydroxypropylcellulose) (HPC)) 96 % of control; (dose: 200.0 mg/kg/injection, schedule: Q01DX009 (ip), vehicle: Klucel (hydroxypropylcellulose) (HPC)) 92 % of control; (dose: 200.0 mg/kg/injection, schedule: Q04DX003 (ip), vehicle: Klucel (hydroxypropylcellulose) (HPC)) 98 % of control; (dose: 400.0 mg/kg/injection, schedule: Q01DX009 (ip), vehicle: Klucel (hydroxypropylcellulose) (HPC)) 92 % of control; (dose: 400.0 mg/kg/injection, schedule: Q04DX003 (ip), vehicle: Klucel (hydroxypropylcellulose) (HPC)) 95 % of control.
For the compound `O=C1N(c2ccccc2)C(c2ccccc2)C1(c1ccccc1)c1ccccc1` (centres undefined), the T/C (dose: 100.0 mg/kg/injection, schedule: Q01DX001 (ip), vehicle: gum acacia) was 92 % of control; the T/C (dose: 200.0 mg/kg/injection, schedule: Q01DX001 (ip), vehicle: gum acacia) was 86 % of control; the T/C (dose: 400.0 mg/kg/injection, schedule: Q01DX001 (ip), vehicle: gum acacia) was 94 % of control.
For `Cc1nn2c(C(=O)O)nnc2s1`, the T/C is, setting by setting: (dose: 100.0 mg/kg/injection, schedule: Q01DX001 (ip), vehicle: carboxymethylcellulose (CMC)) 93 % of control; (dose: 200.0 mg/kg/injection, schedule: Q01DX001 (ip), vehicle: carboxymethylcellulose (CMC)) 98 % of control; (dose: 400.0 mg/kg/injection, schedule: Q01DX001 (ip), vehicle: carboxymethylcellulose (CMC)) 93 % of control.
For the compound `O=C(O)C(Br)C(Br)C(=O)Nc1ccc(Cl)c(Cl)c1` (centres undefined), the T/C was 101 % of control under setting [1], 104 % of control under setting [3] and 93 % of control under setting [5].
In the case of `Cc1nc(Cl)c(C#N)nc1C`, the T/C by setting is: (dose: 50.0 mg/kg/injection, schedule: Q01DX009 (ip), vehicle: saline with Tween-80) 100 % of control; under setting [1], 96 % of control; under setting [2], 100 % of control; under setting [3], 89 % of control; under setting [4], 94 % of control.
For `C[N+]1(CCCNC2=CC(=O)C(NCCC[N+]3(C)CCCCC3)=CC2=O)CCCCC1`, the T/C (dose: 0.5 mg/kg/injection, schedule: Q01DX001 (ip), vehicle: saline) was 105 % of control.
